Reference: ChEMBL document CHEMBL6182838, “Structure-activity relationship expansion and microsomal stability assessment of the 2-morpholinobenzoic acid scaffold as antiproliferative phosphatidylcholine-specific phospholipase C inhibitors” (RSC Med Chem, 2025)

How the values were obtained:
Bacillus cereus = test: Inhibition of Bacillus cereus phosphatidylcholine specific phospholipase C (PC-PLC BC) assessed as enzyme activity by measuring formation of resorufin fluorophore 10 uM by Amplex-Red based fluorescence assay relative to control; set-up: scale not given: the % may be the effect or the level left
MDA-MB-231 = test: Antiproliferative activity against human MDA-MB-231 cells assessed as cell proliferation at 10 uM measured after 3 days incubation followed by incubated 5 hrs with [3H]-thymidine by 3H-thymidine incorporation assay relative to control; assay type: functional; conditions: MDA-MB-231, 72 h, time 3 day, read-out: Activity
HCT-116 = test: Antiproliferative activity against human HCT-116 cells assessed as cell proliferation at 10 uM measured after 3 days incubation followed by incubated 5 hrs with [3H]-thymidine by 3H-thymidine incorporation assay relative to control; assay type: functional; conditions: HCT-116, 72 h, time 3 day, read-out: Activity

Compound | Activity (Bacillus cereus) [%] | growth at 10 µM (MDA-MB-231) [%] | growth at 10 µM (HCT-116) [%]
O=C(O)c1ccc(NCc2ccc(Br)cc2)cc1N1CCOCC1 | 99.1 | 99.7 | 101
O=C(NO)c1cc(NCc2cccc(Cl)c2)ccc1N1CCOCC1 | 30.5 |  | 
COc1ccc(CNc2ccc(C(=O)O)c(N3CCOCC3)c2)cc1 | 106 | 110 | 105
COc1ccccc1CNc1ccc(C2CCOCC2)c(C(=O)NO)c1 | 80.7 | 80.7 | 93.3
COC(=O)c1cc(NCc2cccc(OC)c2)ccc1C1CCOCC1 | 85.5 | 83.9 | 62.5
COC(=O)c1cc(NCc2cccc(Cl)c2)ccc1C1CCOCC1 | 104 | 48.3 | 37.2
O=C(O)c1ccc(NCc2cccc(F)c2)cc1N1CCOCC1 | 84.9 | 92.4 | 93.3
COC(=O)c1cc(NCc2ccccc2Br)ccc1C1CCOCC1 | 112 | 16.4 | 20.3
COC(=O)c1ccc(NCc2cccc(F)c2)cc1N1CCOCC1 | 78.9 | 85.9 | 71
COC(=O)c1ccc(NCc2ccccc2Br)cc1N1CCOCC1 | 36.3 | 51.3 | 29.5
O=C(O)c1cc(NCc2ccc(F)cc2)ccc1C1CCOCC1 | 102 | 107 | 104
O=C(NO)c1cc(NCc2ccc(Cl)cc2)ccc1C1CCOCC1 | 92.5 | 72.2 | 69.9
COC(=O)c1ccc(NCc2ccc(Br)cc2)cc1N1CCOCC1 | 103 | 68.9 | 52.5
O=C(NO)c1ccc(NCc2ccc(F)cc2)cc1N1CCOCC1 | 49.2 | 81.6 | 91.4
O=C(O)c1cc(NCc2cccc(F)c2)ccc1C1CCOCC1 | 36.2 | 104 | 103
O=C(NO)c1ccc(NCc2ccccc2F)cc1N1CCOCC1 | 50.9 | 79.6 | 87.6
COC(=O)c1cc(NCc2ccc(F)cc2)ccc1C1CCOCC1 | 52 | 36 | 25.3
COC(=O)c1cc(NCc2ccccc2F)ccc1C1CCOCC1 | 62.3 | 17.6 | 9.5
COC(=O)c1cc(NCc2cccc(F)c2)ccc1C1CCOCC1 | 44.5 | 41.3 | 29.2
O=C(O)c1cc(NCc2ccccc2Br)ccc1C1CCOCC1 | 116 | 108 | 99.5
COc1cccc(CNc2ccc(C(=O)NO)c(N3CCOCC3)c2)c1 | 51.4 | 65.7 | 77.4
O=C(NO)c1cc(NCc2ccccc2Br)ccc1N1CCOCC1 |  | 7.4 | 
COc1ccc(CNc2ccc(C3CCOCC3)c(C(=O)NO)c2)cc1 | 80.4 | 82 | 88.6
COc1ccc(CNc2ccc(C3CCOCC3)c(C(=O)O)c2)cc1 | 104 | 102 | 93.6
COC(=O)c1ccc(NCc2ccccc2F)cc1N1CCOCC1 | 105 | 92.8 | 67.4
COC(=O)c1ccc(NCc2cccc(Br)c2)cc1N1CCOCC1 | 97.4 | 62.9 | 34.7
O=C(O)c1cc(NCc2ccccc2F)ccc1C1CCOCC1 | 43.4 | 113 | 104

Compound | Activity (Bacillus cereus) [%] | growth at 10 µM (MDA-MB-231) [%] | growth at 10 µM (HCT-116) [%]
O=C(NO)c1cc(NCc2ccccc2F)ccc1C1CCOCC1 | 94 | 88 | 98.6
COC(=O)c1cc(NCc2ccccc2OC)ccc1C1CCOCC1 | 94.7 | 22 | 31.2
O=C(NO)c1cc(NCc2cccc(F)c2)ccc1C1CCOCC1 | 88.2 | 84.4 | 94.4
O=C(O)c1cc(NCc2ccc(Cl)cc2)ccc1C1CCOCC1 | 112 | 115 | 101
O=C(O)c1ccc(NCc2ccccc2Br)cc1N1CCOCC1 | 95.2 | 90 | 94.4
COc1ccccc1CNc1ccc(C(=O)NO)c(N2CCOCC2)c1 | 46.9 | 70.7 | 83.2
O=C(NO)c1cc(NCc2ccc(Br)cc2)ccc1C1CCOCC1 | 71.4 | 61.6 | 60.1
O=C(O)c1ccc(NCc2ccccc2F)cc1N1CCOCC1 | 82.2 | 96.4 | 95.2
COC(=O)c1cc(NCc2cccc(Br)c2)ccc1C1CCOCC1 | 109 | 58.8 | 40.1
O=C(NO)c1cc(NCc2ccccc2)ccc1C1CCOCC1 | 80.7 | 90 | 80.2
COC(=O)c1ccc(NCc2cccc(OC)c2)cc1N1CCOCC1 | 109 | 80.6 | 48.5
O=C(O)c1ccc(NCc2ccc(Cl)cc2)cc1N1CCOCC1 | 32.4 | 88.4 | 88.2
COc1ccccc1CNc1ccc(C2CCOCC2)c(C(=O)O)c1 | 108 | 100 | 106
COC(=O)c1cc(NCc2ccccc2)ccc1C1CCOCC1 | 77.2 | 29.3 | 19.8
O=C(O)c1cc(NCc2cccc(Cl)c2)ccc1C1CCOCC1 | 109 | 114 | 103
O=C(O)c1ccc(NCc2cccc(Cl)c2)cc1N1CCOCC1 | 33.1 | 87.2 | 88.6
O=C(NO)c1ccc(NCc2ccc(Br)cc2)cc1N1CCOCC1 | 45.6 | 21.8 | 18.1
O=C(NO)c1ccc(NCc2ccccc2Cl)cc1N1CCOCC1 | 54.1 | 41.8 | 68.4
O=C(NO)c1cc(NCc2ccccc2Br)ccc1C1CCOCC1 | 75.5 | 74 | 78.3
COC(=O)c1ccc(NCc2ccc(OC)cc2)cc1N1CCOCC1 | 104 | 87.5 | 70.4
COC(=O)c1cc(N(C)Cc2ccccc2Cl)ccc1N1CCOCC1 |  | 83.8 | 54.5
COC(=O)c1cc(NCc2ccccc2Cl)ccc1C1CCOCC1 | 101 | 25.9 | 25.9
O=C(O)c1ccc(NCc2ccc(F)cc2)cc1N1CCOCC1 | 62.4 | 94.8 | 91.6
COc1ccc(CNc2ccc(C(=O)NO)c(N3CCOCC3)c2)cc1 | 45.5 | 76.9 | 91.5
O=C(NO)c1cc(NCc2cccc(Cl)c2)ccc1C1CCOCC1 | 79.7 | 80.1 | 83
O=C(O)c1cc(NCc2cccc(Cl)c2)ccc1N1CCOCC1 | 10.7 |  | 
